From ChEMBL document CHEMBL4418314, “Cyano-substituted heterocycles with activity as inhibitors of usp30” (2018)

Target: T1, Ubiquitin carboxyl-terminal hydrolase 30 (Homo sapiens, UniProt Q70CQ3)
T1 sequence (Q70CQ3 whole entry): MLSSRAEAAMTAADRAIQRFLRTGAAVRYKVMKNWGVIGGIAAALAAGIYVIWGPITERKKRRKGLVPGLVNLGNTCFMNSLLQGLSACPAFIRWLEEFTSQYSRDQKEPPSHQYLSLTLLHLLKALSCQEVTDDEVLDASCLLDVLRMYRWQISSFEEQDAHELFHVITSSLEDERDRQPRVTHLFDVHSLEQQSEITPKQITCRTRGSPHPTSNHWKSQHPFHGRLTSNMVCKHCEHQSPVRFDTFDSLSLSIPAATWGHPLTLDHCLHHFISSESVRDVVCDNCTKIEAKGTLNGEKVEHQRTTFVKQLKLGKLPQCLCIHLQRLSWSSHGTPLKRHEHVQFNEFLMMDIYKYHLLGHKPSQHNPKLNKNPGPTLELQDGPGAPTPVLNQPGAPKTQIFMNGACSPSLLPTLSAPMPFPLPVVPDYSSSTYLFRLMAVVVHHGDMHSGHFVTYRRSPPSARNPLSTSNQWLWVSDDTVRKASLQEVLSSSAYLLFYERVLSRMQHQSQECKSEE
Test: Inhibition of untagged human USP30 catalytic domain (57 to 517 residues) expressed in Escherichia coli using TAMRA labeled ubiquitin peptide as substrate preincubated for 30 min followed by substrate addition and measured after 2 hrs by fluorescence polarization assay

- IC50: < 100 nM
SMILES: N#CN1CCC[C@](F)(C(=O)Nc2cc(-c3cccc(C(F)(F)F)c3)on2)C1
